Source: patent publication US6809065B2, “Herbicide containing substituted pyrazole derivative as active ingredient” (SDS Biotech K.K., priority 2001, dated 2004)

Assays:
[1] = system: Chenopodium album; test: Upland soil treatment (Test Example 2); format: in vivo; settings: soil surface treatment next day after sowing, wettable powder, 1 kg active ingredient per hectare, evaluated 21st day after application
How it was run: (§1)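 Upland soil in pots was sown with weed and crop seeds, covered with about 1 cm soil, and next day sprayed on the surface with wettable-powder formulation at 1 kg active ingredient per hectare. Effects were scored by index on day 21; higher index means stronger weed control, lower index means better crop safety.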

[2] = system: Digitaria adscendens; test: Upland soil treatment (Test Example 2); format: in vivo; settings: soil surface treatment next day after sowing, wettable powder, 1 kg active ingredient per hectare, evaluated 21st day after application
How it was run: as §1

[3] = system: Stellaria media; test: Upland soil treatment (Test Example 2); format: in vivo; settings: soil surface treatment next day after sowing, wettable powder, 1 kg active ingredient per hectare, evaluated 21st day after application
How it was run: as §1

[4] = system: Setaria viridis; test: Upland soil treatment (Test Example 2); format: in vivo; settings: soil surface treatment next day after sowing, wettable powder, 1 kg active ingredient per hectare, evaluated 21st day after application
How it was run: as §1

[5] = system: Echinochloa spp.; test: Paddy field treatment (Test Example 3); format: in vivo, Echinochloa crusgalli; settings: paddy pot, submerged 4 cm, dropped on water surface 10th day after transplantation, 1 kg active ingredient per hectare, evaluated 21st day
How it was run: (§2)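 Paddy soil in pots was puddled and flooded to 4 cm, weeds were sown, and two-leaf Koshihikari rice was transplanted at 3 cm depth. Ten days after transplanting, wettable powder was applied onto the water surface at 1 kg active ingredient per hectare. Herbicidal effect was index-scored 21 days later.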

[6] = system: Chenopodium album; test: Upland field foliage treatment (Test Example 1); format: in vivo; settings: foliage treatment 14th day after sowing, wettable powder, 1 kg active ingredient per hectare, evaluated 21st day after application
How it was run: (§3)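 Foliar spray, 1 kg a.i./ha, wettable powder in water, applied 14 d post-sowing; seeds covered by ~1 cm upland soil. Index scoring at 21 d. Higher index = stronger weed control; for crops, lower index = greater safety.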

[7] = system: Digitaria adscendens; test: Upland field foliage treatment (Test Example 1); format: in vivo; settings: foliage treatment 14th day after sowing, wettable powder, 1 kg active ingredient per hectare, evaluated 21st day after application
How it was run: as §3

[8] = system: Stellaria media; test: Upland field foliage treatment (Test Example 1); format: in vivo; settings: foliage treatment 14th day after sowing, wettable powder, 1 kg active ingredient per hectare, evaluated 21st day after application
How it was run: as §3

[9] = system: Setaria viridis; test: Upland field foliage treatment (Test Example 1); format: in vivo; settings: foliage treatment 14th day after sowing, wettable powder, 1 kg active ingredient per hectare, evaluated 21st day after application
How it was run: as §3

[10] = system: Scirpus juncoides; test: Paddy field treatment (Test Example 3); format: in vivo; settings: paddy pot, submerged 4 cm, dropped on water surface 10th day after transplantation, 1 kg active ingredient per hectare, evaluated 21st day
How it was run: as §2

[11] = system: Monochoria vaginalis; test: Paddy field treatment (Test Example 3); format: in vivo; settings: paddy pot, submerged 4 cm, dropped on water surface 10th day after transplantation, 1 kg active ingredient per hectare, evaluated 21st day
How it was run: as §2

[12] = system: Ammannia multiflora; test: Paddy field treatment (Test Example 3); format: in vivo; settings: paddy pot, submerged 4 cm, dropped on water surface 10th day after transplantation, 1 kg active ingredient per hectare, evaluated 21st day
How it was run: as §2

[13] = system: wheat (Triticum aestivum); test: Upland soil treatment (Test Example 2), crop; format: in vivo; settings: soil surface treatment next day after sowing, 1 kg active ingredient per hectare, evaluated 21st day, lower index = higher safety
How it was run: as §1

[14] = system: soybean (Glycine max); test: Upland soil treatment (Test Example 2), crop; format: in vivo; settings: soil surface treatment next day after sowing, 1 kg active ingredient per hectare, evaluated 21st day, lower index = higher safety
How it was run: as §1

[15] = system: wheat (Triticum aestivum); test: Upland field foliage treatment (Test Example 1), crop; format: in vivo; settings: foliage treatment 14th day after sowing, 1 kg active ingredient per hectare, evaluated 21st day, lower index = higher safety
How it was run: as §3

[16] = system: soybean (Glycine max); test: as above; format: in vivo; settings: foliage treatment 14th day after sowing, 1 kg active ingredient per hectare, evaluated 21st day, lower index = higher safety
How it was run: as §3

[17] = system: rice (Oryza sative, variety: Koshihikari); test: Paddy field treatment (Test Example 3), crop; format: in vivo, Oryza sativa; settings: transplanted rice two-leaf period, water surface treatment 10th day after transplantation, 1 kg active ingredient per hectare, evaluated 21st day, lower index = higher safety
How it was run: as §2

SMILES | Herbicidal activity Chenopodium album [1] | Herbicidal activity Digitaria adscendens [2] | Herbicidal activity Stellaria media [3] | Herbicidal activity Setaria viridis [4] | Herbicidal activity Echinochloa spp. [5] | Herbicidal activity Chenopodium album [6] | Herbicidal activity Digitaria adscendens [7] | Herbicidal activity Stellaria media [8] | Herbicidal activity Setaria viridis [9] | Herbicidal activity Scirpus juncoides [10] | Herbicidal activity Monochoria vaginalis [11] | Herbicidal activity Ammannia multiflora [12] | Herbicidal activity Triticum aestivum [13] | Herbicidal activity Glycine max [14] | Herbicidal activity Triticum aestivum [15] | Herbicidal activity Glycine max [16] | Herbicidal activity Oryza sativa [17]
COC=C(Cn1nc(-c2ccccc2)c(Cl)c1SC)C(=O)OC [Compound 41] | 4 (herbicidal effect of not less than 70% by weight and less than 90% by weight) | 4 (herbicidal effect of not less than 70% by weight and less than 90% by weight) | 4 (herbicidal effect of not less than 70% by weight and less than 90% by weight) | 4 (herbicidal effect of not less than 70% by weight and less than 90% by weight) | 4 (herbicidal effect of not less than 70% by weight and less than 90% by weight) | 4 (herbicidal effect of not less than 70% by weight and less than 90% by weight) | 4 (herbicidal effect of not less than 70% by weight and less than 90% by weight) | 4 (herbicidal effect of not less than 70% by weight and less than 90% by weight) | 4 (herbicidal effect of not less than 70% by weight and less than 90% by weight) | 3 (herbicidal effect of not less than 50% by weight and less than 70% by weight) | 3 (herbicidal effect of not less than 50% by weight and less than 70% by weight) | 3 (herbicidal effect of not less than 50% by weight and less than 70% by weight) | 0 (herbicidal effect of not less than 0% by weight and less than 10% by weight) | 0 (herbicidal effect of not less than 0% by weight and less than 10% by weight) | 0 (herbicidal effect of not less than 0% by weight and less than 10% by weight) | 0 (herbicidal effect of not less than 0% by weight and less than 10% by weight) | 0 (herbicidal effect of not less than 0% by weight and less than 10% by weight)
COC=C(Cn1nc(-c2cc(Cl)cc(Cl)c2)c(Cl)c1C)C(=O)OC [Compound 25] | 4 (herbicidal effect of not less than 70% by weight and less than 90% by weight) | 4 (herbicidal effect of not less than 70% by weight and less than 90% by weight) | 4 (herbicidal effect of not less than 70% by weight and less than 90% by weight) | 4 (herbicidal effect of not less than 70% by weight and less than 90% by weight) | 3 (herbicidal effect of not less than 50% by weight and less than 70% by weight) | 4 (herbicidal effect of not less than 70% by weight and less than 90% by weight) | 4 (herbicidal effect of not less than 70% by weight and less than 90% by weight) | 4 (herbicidal effect of not less than 70% by weight and less than 90% by weight) | 4 (herbicidal effect of not less than 70% by weight and less than 90% by weight) | 3 (herbicidal effect of not less than 50% by weight and less than 70% by weight) | 3 (herbicidal effect of not less than 50% by weight and less than 70% by weight) | 3 (herbicidal effect of not less than 50% by weight and less than 70% by weight) | 0 (herbicidal effect of not less than 0% by weight and less than 10% by weight) | 0 (herbicidal effect of not less than 0% by weight and less than 10% by weight) | 0 (herbicidal effect of not less than 0% by weight and less than 10% by weight) | 0 (herbicidal effect of not less than 0% by weight and less than 10% by weight) | 0 (herbicidal effect of not less than 0% by weight and less than 10% by weight)
COC=C(Cn1cc(Cl)c(-c2ccccc2)n1)C(=O)OC [Compound 15] | 5 (herbicidal effect of not less than 90% by weight) | 5 (herbicidal effect of not less than 90% by weight) | 5 (herbicidal effect of not less than 90% by weight) | 5 (herbicidal effect of not less than 90% by weight) | 5 (herbicidal effect of not less than 90% by weight) | 5 (herbicidal effect of not less than 90% by weight) | 5 (herbicidal effect of not less than 90% by weight) | 5 (herbicidal effect of not less than 90% by weight) | 5 (herbicidal effect of not less than 90% by weight) | 5 (herbicidal effect of not less than 90% by weight) | 5 (herbicidal effect of not less than 90% by weight) | 5 (herbicidal effect of not less than 90% by weight) | 0 (herbicidal effect of not less than 0% by weight and less than 10% by weight) | 0 (herbicidal effect of not less than 0% by weight and less than 10% by weight) | 0 (herbicidal effect of not less than 0% by weight and less than 10% by weight) | 1 (herbicidal effect of not less than 10% by weight and less than 30% by weight) | 0 (herbicidal effect of not less than 0% by weight and less than 10% by weight)
COC=C(Cn1nc(-c2cc(Cl)ccc2Cl)cc1C)C(=O)OC [Compound 8] | 4 (herbicidal effect of not less than 70% by weight and less than 90% by weight) | 4 (herbicidal effect of not less than 70% by weight and less than 90% by weight) | 4 (herbicidal effect of not less than 70% by weight and less than 90% by weight) | 4 (herbicidal effect of not less than 70% by weight and less than 90% by weight) | 4 (herbicidal effect of not less than 70% by weight and less than 90% by weight) | 5 (herbicidal effect of not less than 90% by weight) | 5 (herbicidal effect of not less than 90% by weight) | 5 (herbicidal effect of not less than 90% by weight) | 4 (herbicidal effect of not less than 70% by weight and less than 90% by weight) | 4 (herbicidal effect of not less than 70% by weight and less than 90% by weight) | 5 (herbicidal effect of not less than 90% by weight) | 5 (herbicidal effect of not less than 90% by weight) | 0 (herbicidal effect of not less than 0% by weight and less than 10% by weight) | 0 (herbicidal effect of not less than 0% by weight and less than 10% by weight) | 0 (herbicidal effect of not less than 0% by weight and less than 10% by weight) | 0 (herbicidal effect of not less than 0% by weight and less than 10% by weight) | 0 (herbicidal effect of not less than 0% by weight and less than 10% by weight)
